# Assay results from patent US6992215B2, “Thiol-based NAALADase inhibitors” (Guildford Pharmaceuticals Inc., priority 2001, dated 2006).
# Where “and” joins values, the source holds several entries; their conditions need not be identical. Identical values can stand only once. Peptide text beside a SMILES is read from it.
# Key:
# [1] = tested on: STZ-induced diabetic rats; experiment: Neuropathic pain in STZ model (Hargreaves thermal nociception); type: in vivo, Sprague-Dawley rats; conditions: 10 mg/kg i.p. daily, treatment started 45 days post-STZ
# Method: Male Sprague-Dawley rats (200–225 g) were rendered diabetic by intravenous administration of streptozotocin (“STZ”, 70 mg/kg in phosphate buffered saline). Diabetic animals were divided into five groups: one group receiving Compound A (10 mg/kg or 1 mg/kg), Compound D (10 mg/kg or 1 mg/kg) or vehicle. Another group of animals (non-STZ treated) served as non-diabetic controls. Drug/vehicle treatment was started in diabetic animals 45 days post-STZ administration. STZ-induced diabetic rats were tested for sensitivity to a heat source as soon as blood glucose levels rose to 320 mg/dl or above (30 days post STZ). The rats were then acclimated to a Hargreaves apparatus and thermal nociception was monitored using an infrared heat source directed into the dorsal surface of the hindpaw, and the time taken for the animal to remove its paw noted to the nearest 0.1 seconds (see Hargreaves et al., supra, for detailed experimental method). The intensity of the beam source was adjusted such that the mean latency for control animals (non-STZ treated) was approximately 10 seconds. Each animal was tested 8 times and the mean difference score (between mean non-diabetic control latency and mean diabetic latency) are graphically presented in FIGS. 7A and 7B.
# BB/W diabetic rats = experiment: Progression of neuropathic pain and nerve conduction deficits in BB/W model; type: in vivo
# Excerpt: Male BB/W rats (BRI, Mass) spontaneously develop a cell mediated autoimmune destruction of pancreatic B cells, resulting in onset of insulin-dependent (Type I) diabetes (Guberski 1994). […] This renders them valuable for experimental trials of new compounds for future treatments of this major disorder. In the present study, Compound D and Compound A were examined for their ability to alter the progression of diabetic neuropathy. […] Another group of non-diabetic rats also receiving vehicle were tested. All animals were continuously monitored for body weight, urine volume, blood sugar and glycated haemoglobin. In the first month of the study, all animals were tested for thermal nociception in a Hargreaves apparatus, weekly. After the first month this was done biweekly and then monthly. The testing consists of directing an infrared heat source onto the dorsal surface of the rat hindpaw and noting the time taken for the animal to remove its paw (see Hargreaves et al., supra, for a description of the experimental method). Each animal was tested 8 times and the mean withdrawal latency noted.
# Nerve conduction velocity was also measured every two weeks through the first eight weeks of treatment and every month thereafter through to the six months of treatment (see De Koning et al., Peptides, Vol. 8, No. 3, pp. 415–22 (1987) for a description of the experimental method). […] This was apparent starting at 8 weeks of treatment and persisted to a similar degree through to the six month termination point of the study.
# STZ-diabetic rats = experiment: Diabetic neuropathy in STZ model (motor and sensory nerve conduction velocity); type: in vivo
# Method: Motor and sensory nerve conduction velocity was also measured in STZ-diabetic animals after 4, 8 and 12 weeks of treatment (see De Koning et al., supra, for a description of the experimental method). Briefly, stimulating needle electrodes were inserted close to the sciatic and tibial nerves with recording electrodes being placed subcutaneously over the distal foot muscles, in anesthetized rats.
# transgenic G1H mice = experiment: Effect of NAALADase inhibitors on onset of ALS (FALS transgenic mice); type: in vivo
# Method: The effect of NAALADase inhibitors on the onset of ALS was tested using the transgenic mice model of familial amyotrophic lateral sclerosis (FALS), which is detailed in Gurney, M., Annals of Neurology (1996) 39:147–157, and otherwise well known in the art. One month old transgenic G1H mice were treated with daily intraperitoneal injections of a vehicle (50 mM HEPES-buffered saline) or a NAALADase inhibitor (50 mg/kg Compound A). Clinical symptoms of the mice were monitored daily. The onset of clinical disease was scored by examining each mouse for its shaking of limbs when suspended in the air by its tail, cross spread of spinal reflexes, hindlimb paralysis, body weight and wheel running activity.
# [2] = tested on: rats with unilateral elevation of intraocular pressure; experiment: Experimental rat glaucoma (IOP elevation, optic nerve fiber counting); type: in vivo; conditions: for FIBER NUMBER / PERCENT DIFFERENCE (fiber number between glaucoma and normal eye): 10 mg/kg i.p. daily; for mean percent fiber loss versus saline-treated control groups: at 8 weeks, p=0.05 for Compound A and p=0.02 for Compound B
# Method: (§1) All experiments complied with the Association for Research in Vision and Ophthalmology Statement for the Use of Animals in Ophthalmic and Vision Research. 82 male Brown Norway rats (Rattus norvegicus), each weighing approximately 250 gm, were treated using procedures approved by the Animal Care Committee of the Johns Hopkins University School of Medicine. The rats were housed with a 12 hour light/12 hour dark cycle and fed ad libitum.
# EXPERIMENTAL GLAUCOMA: Unilateral elevation of intraocular pressure (“IOP”) was produced in 56 rats by microinjection of hypertonic saline into episcleral veins, following procedures described in Morrison, J. et al., IOVS (March 1998) 39:526–531. Beginning on the day of IOP elevation, the rats were treated daily with intraperitoneal injections of either a vehicle (23 rats with 50 mM HEPES-buffered saline) or a NAALADase inhibitor (11 rats with 10 mg/kg of Compound A and 22 rats with 10 mg/kg of Compound B). 11 saline treated rats, 11 Compound A treated rats and 11 Compound B treated rats were sacrificed at 8 weeks, and the remaining rats at 12 weeks, after initial IOP elevation.
# (§2) OPTIC NERVE COUNTING: The rats were sacrificed by exsanguination under deep pentobarbital anesthesia. They were perfused through the heart with 2% paraformaldehyde/2% glutaraldehyde in 0.1 M phosphate buffer, pH 7.2, and the eyes with attached optic nerves were removed. A cross-section of the optic nerve from both experimental (glaucoma or transection) and control eyes was removed 1.5 mm posterior to the globe, 1 mm in thickness, and post-fixed in 2% osmium tetroxide in buffer. These were processed into epoxy resin, sectioned at 1 micron and stained with toluidine blue.
# (§3) The area of the optic nerve cross-section was measured by outlining its outer border at 10× magnification on an image analysis system (Universal Imaging Corp., Westchester, Pa.) with Synsys digital camera and Metamorph software. Three area measurements were taken and the mean value was determined. To measure the density and fiber diameter distributions, images were captured with a 100× phase contrast objective from 10 different areas of each nerve. These were edited to eliminate non-neural objects and the size of each axon internal to the myelin sheath (its minimum diameter) and the density of axons/square mm were calculated for each image and nerve. The mean density was multiplied by total nerve area to yield fiber number for each nerve. The total fiber number in glaucoma or transection nerves was compared to the normal, fellow eye of each rat to yield a percent loss value. The number of axons counted among the 10 images was an approximately 20% sample of the 80–90,000 axons in normal rat nerves. The person measuring axon number was masked to the protocol conducted on the nerves.
# [3] = tested on: rats with unilaterally transected optic nerve; experiment: Optic nerve transection (optic nerve fiber counting); type: in vivo, Rattus norvegicus; conditions: for remaining axons relative to the saline-treated rats: 2 weeks after transection; for FIBER NUMBER / PERCENT DIFFERENCE (fiber number between transected eye and normal eye): 10 mg/kg i.p. daily
# Method: as §1
# OPTIC NERVE TRANSECTION: The optic nerve was transected unilaterally in 26 rats under intraperitoneal pentobarbital anesthesia. The conjunctiva was opened with scissors and the optic nerve exposed by traction on extraocular muscles. The transection was performed with microscissors 5 mm posterior to the globe, with specific attention to avoidance of injury to major ocular blood vessels. Immediately after transection, the retina was examined ophthalmoscopically to assure that the retinal arterial blood supply was not disrupted. The conjunctiva was closed with absorbable suture and the eye dressed with antibiotic ointment. Beginning on the day of transection, the rats were treated daily with intraperitoneal injections of either a vehicle (9 rats with 50 mM HEPES-buffered saline) or a NAALADase inhibitor (8 rats with 10 mg/kg of Compound A and 9 rats with 10 mg/kg of Compound B). 5 saline treated rats, 3 Compound A treated rats and 4 Compound B treated rats were sacrificed at 2 weeks, and the remaining rats at 4 weeks, after transection.
# as §2, §3
# NAALADase = biological target: T1, NAALADase (Homo sapiens, UniProt Q04609); conditions: NAAG as substrate; cited from earlier work
# T1 construct: 100 μL tissue; from tissue; host or cells: unspecified tissue
# T1 sequence (Q04609 whole entry): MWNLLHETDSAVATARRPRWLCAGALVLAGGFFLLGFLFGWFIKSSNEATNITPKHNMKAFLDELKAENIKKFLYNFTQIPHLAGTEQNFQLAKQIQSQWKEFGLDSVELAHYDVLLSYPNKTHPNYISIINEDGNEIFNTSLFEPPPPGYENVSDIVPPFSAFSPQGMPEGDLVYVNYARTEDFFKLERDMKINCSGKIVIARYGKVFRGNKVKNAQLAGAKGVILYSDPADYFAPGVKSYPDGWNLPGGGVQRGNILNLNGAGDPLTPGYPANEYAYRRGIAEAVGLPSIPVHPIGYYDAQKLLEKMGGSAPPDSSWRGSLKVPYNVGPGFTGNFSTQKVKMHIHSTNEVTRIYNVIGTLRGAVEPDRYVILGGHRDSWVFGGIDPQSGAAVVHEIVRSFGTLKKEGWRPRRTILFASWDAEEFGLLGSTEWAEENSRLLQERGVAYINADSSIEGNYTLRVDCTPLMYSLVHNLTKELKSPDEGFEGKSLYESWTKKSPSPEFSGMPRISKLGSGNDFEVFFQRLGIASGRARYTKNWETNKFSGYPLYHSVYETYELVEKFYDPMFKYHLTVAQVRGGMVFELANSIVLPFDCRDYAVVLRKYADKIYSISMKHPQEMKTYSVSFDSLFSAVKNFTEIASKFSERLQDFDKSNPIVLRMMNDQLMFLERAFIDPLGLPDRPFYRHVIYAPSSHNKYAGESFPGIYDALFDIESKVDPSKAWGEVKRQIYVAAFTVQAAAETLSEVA
# [4] = tested on: transgenic HD mice of the N171–82Q strain; experiment: Huntington's disease transgenic mouse model, behavioral testing (rotarod, locomotion); type: in vivo; conditions: FIG. 42
# Method: Transgenic HD mice of the […]-[…] strain and non-transgenic littermates were treated with NAALADase inhibitor Compound B (30 mg/kg) or a vehicle from 10 weeks of age. The mice were placed on a rotating rod (“rotarod”). The length of time at which the mouse fell off the rotarod was recorded as a measure of motor coordination. […] The treatment with Compound B had no effect on the rotarod performance of normal non-HD mice. The total distance traveled by the mice was also recorded as a measure of overall locomotion.
# [5] = tested on: transgenic HD mice (N171–82Q); experiment: Huntington's disease transgenic mouse model, survival; type: in vivo
# Method: The effects of Compound B and vehicle on the survival of transgenic HD mice (N171–82Q) were evaluated. Thirteen mice (six male and seven female) were assigned to the Compound B treatment group, and fourteen mice (six male and eight female) were assigned to the vehicle treatment group. Treatment was continued until all the mice died.
# [6] = 8 week group, positive value indicates fewer fibers in the glaucoma eye
SMILES,FIBER NUMBER ([2]; 8 week group),"PERCENT DIFFERENCE (fiber number between glaucoma and normal eye) [2, 6] [%]",mean percent fiber loss versus saline-treated control groups [2],remaining axons relative to the saline-treated rats [3],FIBER NUMBER ([3]; 2 weeks survival),PERCENT DIFFERENCE (fiber number between transected eye and normal eye) ([3]; 2 weeks survival) [%],FIBER NUMBER ([3]; 4 weeks survival),PERCENT DIFFERENCE (fiber number between transected eye and normal eye) ([3]; 4 weeks survival) [%],further results
O=C(O)CCC(CP(=O)(O)Cc1c(F)c(F)c(F)c(F)c1F)C(=O)O (centres unmarked) [Compound A],79156 ± 2436,−1.82 ± 2.92,statistically less,3 times,"26,426 ± 23,025",65.3 ± 30.9,"13,599 ± 7,868",82.4 ± 8.9,"hyperalgesic response (withdrawal latency difference score) [1]: completely reversed; nerve conduction velocity deficits versus diabetic vehicle controls (BB/W diabetic rats; 10 mg/kg daily, from 8 weeks to six months of treatment, FIG. 12): significantly less severe nerve conduction deficits; withdrawal latency versus diabetic vehicle-treated rats (BB/W diabetic rats; 10 mg/kg i.p. daily, starting after 4 weeks and through six months of treatment, FIG. 11): longer withdrawal latencies; motor and sensory nerve conduction velocities (STZ-diabetic rats; 10 mg/kg daily for 4, 8 and 12 weeks, FIGS. 9A and 9B): tended to improve (increase); treatment time after which improvement of motor nerve conduction velocity was significant (STZ-diabetic rats; 10 mg/kg daily, FIG. 9A): 12 weeks; treatment time after which improvement of sensory nerve conduction velocity was significant (STZ-diabetic rats; 10 mg/kg daily, FIG. 9B): 8 weeks; DIFFERENCE (disease onset, Compound A treated versus vehicle treated mice) (transgenic G1H mice; 50 mg/kg daily intraperitoneal injections): 32 and 25; DISEASE ONSET FOR COMPOUND A TREATED MICE (transgenic G1H mice; 50 mg/kg daily intraperitoneal injections from one month of age): 221 days and 166 days"
"CC(=O)N[C@@H](CC(=O)O)C(=O)N[C@@H](CCC(=O)O)C(=O)O [NAAG, N-acetyl-aspartyl-glutamate] (Ac-Asp-Glu-OH)",,,,,,,,,Km (NAALADase): 0.54 µM
"O=C(O)CCC(CCCS)C(=O)O (centres unmarked) [Compound B, 2-(3-sulfanylpropyl)pentanedioic acid]",80785 ± 2121,−0.82 ± 2.97,statistically less,twice,"19,550 ± 11,383",75.3 ± 14.8,"5,162 ± 5,017",93.4 ± 6.2,"FIBER NUMBER ([2]; 12 week group): 90504 ± 1718; PERCENT DIFFERENCE (fiber number between glaucoma and normal eye) ([2]; 12 week group): −3.21 ± 2.86%; rotarod performance ([4]; normal non-HD mice, 30 mg/kg): no effect; rotarod performance (time on the rotarod) versus vehicle ([4]; transgenic HD mice, 30 mg/kg from 10 weeks of age): stayed longer on the rotarod; survival time versus vehicle treated counterparts ([5]; female mice, p-value=0.03, FIG. 46): significantly prolonged survival time; difference in median survival time versus vehicle treatment group ([5]; p-value=0.07): not statistically significant; median survival time ([5]; transgenic HD mice, male and female, FIG. 44): 184 days"
